From ChEMBL document CHEMBL6078640, “Trivalent oleanolic acid-glucose conjugates: Synthesis and efficacy against Influenza A virus” (Eur J Med Chem, 2024) come the findings set out here.

The test system of one series is MDCK. As to the kind of experiment: Cytotoxicity against dog MDCK cells assessed as reduction in cell viability at 100 uM incubated for 40 hrs by celltiter-glo assay. In kind it is toxicity, cell-based, Canis lupus familiaris. (Cellular ATP, detected with luciferase, serves as a proxy for viable cell number.)
Series [1] relates to Influenza A virus. Nature of the series: Antiviral activity against influenza A virus A/WSN/33(H1N1) infected in MDCK cells assessed as inhibition of viral-induced cytopathic effect pretreated with cells followed by viral infection and measured after 40 hrs by fluorescence based microplate reader analysis. In kind it is functional, organism-based. Background: Protection from cytopathic effect is a common read-out in antiviral testing.

Series [2] can be described thus: Selectivity index, ratio of CC50 for dog MDCK cells to IC50 for influenza A virus A/WSN/33(H1N1) infected in MDCK cells. In kind it is toxicity, cell-based. To be noted: read-out: Selectivity Index.
A short description of series [3]: Cytotoxicity against dog MDCK cells assessed as reduction in cell viability incubated for 40 hrs by celltiter-glo assay. In kind it is toxicity, cell-based, Canis lupus familiaris.
The subject of series [4] is Influenza A virus. As to the kind of experiment: Antiviral activity against Influenza A virus H1N1 infected in MDCK cells assessed as inhibition of viral growth at 100 uM relative to control. In kind it is functional.

SMILES strings stand for the structures.

As to `CCOC(=O)C1=C[C@@H](OC(CC)CC)[C@H](NC(C)=O)[C@@H](N)C1.O=P(O)(O)O` [OSELTAMIVIR PHOSPHATE], the Activity entry in the series on MDCK was “Non-toxic”. Besides, the half-maximal inhibitory concentration (IC50) (as a rule, the midpoint of a concentration-inhibition curve) with Influenza A virus [1] is 5.47 µM. The selectivity ratio in series [2] was over 18.3. Further, in series [3], the CC50 – broadly, the concentration at which the toxic effect on the cells reaches its halfway point – at 40 h is over 100 µM.
`CC(=O)OC[C@H]1O[C@@H](n2cc(CNC(=O)[C@]34CCC(C)(C)C[C@H]3C3=CC[C@@H]5[C@@]6(C)CC[C@H](OC(=O)NCCCCCc7cn(Cc8cc(Cn9cc(CCCCCNC(=O)O[C@H]%10CC[C@]%11(C)[C@H]%12CC=C%13[C@@H]%14CC(C)(C)CC[C@]%14(C(=O)NCc%14cn([C@@H]%15O[C@H](COC(C)=O)[C@@H](OC(C)=O)[C@H](OC(C)=O)[C@H]%15OC(C)=O)nn%14)CC[C@@]%13(C)[C@]%12(C)CC[C@H]%11C%10(C)C)nn9)cc(Cn9cc(CCCCCNC(=O)O[C@H]%10CC[C@]%11(C)[C@H]%12CC=C%13[C@@H]%14CC(C)(C)CC[C@]%14(C(=O)NCc%14cn([C@@H]%15O[C@H](COC(C)=O)[C@@H](OC(C)=O)[C@H](OC(C)=O)[C@H]%15OC(C)=O)nn%14)CC[C@@]%13(C)[C@]%12(C)CC[C@H]%11C%10(C)C)nn9)c8)nn7)C(C)(C)[C@@H]6CC[C@@]5(C)[C@]3(C)CC4)nn2)[C@H](OC(C)=O)[C@@H](OC(C)=O)[C@@H]1OC(C)=O`: in the series with MDCK, the Activity result is recorded as “Non-toxic”. Moreover, the inhibition (as a rule, the relative decrease from the control value, in per cent) at 100 µM in the series with Influenza A virus [4] is over 75%. Further, the concentration for half-maximal inhibition (IC50) in the series with Influenza A virus [1] came to 52.9 µM. Also, the selectivity ratio in series [2] was over 1.89. Besides, in series [3], the half-maximal cytotoxic concentration (CC50) at 40 h is over 100 µM.
In the case of `CC1(C)CC[C@]2(C(=O)NCc3cn([C@@H]4O[C@H](CO)[C@@H](O)[C@H](O)[C@H]4O)nn3)CC[C@]3(C)C(=CC[C@@H]4[C@@]5(C)CC[C@H](OC(=O)NCCCCCc6cn(Cc7cc(Cn8cc(CCCCCNC(=O)O[C@H]9CC[C@]%10(C)[C@H]%11CC=C%12[C@@H]%13CC(C)(C)CC[C@]%13(C(=O)NCc%13cn([C@@H]%14O[C@H](CO)[C@@H](O)[C@H](O)[C@H]%14O)nn%13)CC[C@@]%12(C)[C@]%11(C)CC[C@H]%10C9(C)C)nn8)cc(Cn8cc(CCCCCNC(=O)O[C@H]9CC[C@]%10(C)[C@H]%11CC=C%12[C@@H]%13CC(C)(C)CC[C@]%13(C(=O)NCc%13cn([C@@H]%14O[C@H](CO)[C@@H](O)[C@H](O)[C@H]%14O)nn%13)CC[C@@]%12(C)[C@]%11(C)CC[C@H]%10C9(C)C)nn8)c7)nn6)C(C)(C)[C@@H]5CC[C@]43C)[C@@H]2C1`, the Activity result in the series on MDCK is recorded as “Non-toxic”. Further, the inhibition at 100 µM in the series with Influenza A virus [4] was over 75%. Further, in the series on Influenza A virus [1], the half-maximal inhibitory concentration (IC50) was found to be 72.9 µM. Also, the selectivity ratio in series [2] was over 1.37. Further, the CC50 at 40 h in series [3] is over 100 µM.
Take `CC1(C)CC[C@]2(C(=O)NCc3cn([C@@H]4O[C@H](CO)[C@@H](O)[C@H](O)[C@H]4O)nn3)CC[C@]3(C)C(=CC[C@@H]4[C@@]5(C)CC[C@H](OC(=O)NCCc6cn(Cc7cc(Cn8cc(CCNC(=O)O[C@H]9CC[C@]%10(C)[C@H]%11CC=C%12[C@@H]%13CC(C)(C)CC[C@]%13(C(=O)NCc%13cn([C@@H]%14O[C@H](CO)[C@@H](O)[C@H](O)[C@H]%14O)nn%13)CC[C@@]%12(C)[C@]%11(C)CC[C@H]%10C9(C)C)nn8)cc(Cn8cc(CCNC(=O)O[C@H]9CC[C@]%10(C)[C@H]%11CC=C%12[C@@H]%13CC(C)(C)CC[C@]%13(C(=O)NCc%13cn([C@@H]%14O[C@H](CO)[C@@H](O)[C@H](O)[C@H]%14O)nn%13)CC[C@@]%12(C)[C@]%11(C)CC[C@H]%10C9(C)C)nn8)c7)nn6)C(C)(C)[C@@H]5CC[C@]43C)[C@@H]2C1`: in the series on MDCK, the Activity entry is “Non-toxic”. For the same compound, the inhibition at 100 µM in the series with Influenza A virus [4] is over 75%. In addition, in the series with Influenza A virus [1], the IC50 turned out to be 20.1 µM. In addition, in series [2], the selectivity ratio was over 4.97. Moreover, the 50% cytotoxic concentration (CC50) at 40 h in series [3] was over 100 µM.
Take `CC1(C)CC[C@]2(C(=O)NCc3cn([C@@H]4O[C@H](CO)[C@@H](O)[C@H](O)[C@H]4O)nn3)CC[C@]3(C)C(=CC[C@@H]4[C@@]5(C)CC[C@H](OC(=O)NCc6cn(CC(CO)(Cn7cc(CNC(=O)O[C@H]8CC[C@]9(C)[C@H]%10CC=C%11[C@@H]%12CC(C)(C)CC[C@]%12(C(=O)NCc%12cn([C@@H]%13O[C@H](CO)[C@@H](O)[C@H](O)[C@H]%13O)nn%12)CC[C@@]%11(C)[C@]%10(C)CC[C@H]9C8(C)C)nn7)Cn7cc(CNC(=O)O[C@H]8CC[C@]9(C)[C@H]%10CC=C%11[C@@H]%12CC(C)(C)CC[C@]%12(C(=O)NCc%12cn([C@@H]%13O[C@H](CO)[C@@H](O)[C@H](O)[C@H]%13O)nn%12)CC[C@@]%11(C)[C@]%10(C)CC[C@H]9C8(C)C)nn7)nn6)C(C)(C)[C@@H]5CC[C@]43C)[C@@H]2C1`: the Activity entry in the series with MDCK is given as “Non-toxic”. In addition, the inhibition at 100 µM in the series with Influenza A virus [4] is over 75%. Further, the 50% inhibitory concentration (IC50) with Influenza A virus [1] was 6.91 µM. Moreover, the selectivity ratio in series [2] is over 14.5. For the same compound, the 50% cytotoxic concentration (CC50) at 40 h in series [3] is over 100 µM.
Consider `CC(=O)OC[C@H]1O[C@@H](n2cc(CNC(=O)[C@]34CCC(C)(C)C[C@H]3C3=CC[C@@H]5[C@@]6(C)CC[C@H](OC(=O)NCCCCCc7cn(CC(CO)(Cn8cc(CCCCCNC(=O)O[C@H]9CC[C@]%10(C)[C@H]%11CC=C%12[C@@H]%13CC(C)(C)CC[C@]%13(C(=O)NCc%13cn([C@@H]%14O[C@H](COC(C)=O)[C@@H](OC(C)=O)[C@H](OC(C)=O)[C@H]%14OC(C)=O)nn%13)CC[C@@]%12(C)[C@]%11(C)CC[C@H]%10C9(C)C)nn8)Cn8cc(CCCCCNC(=O)O[C@H]9CC[C@]%10(C)[C@H]%11CC=C%12[C@@H]%13CC(C)(C)CC[C@]%13(C(=O)NCc%13cn([C@@H]%14O[C@H](COC(C)=O)[C@@H](OC(C)=O)[C@H](OC(C)=O)[C@H]%14OC(C)=O)nn%13)CC[C@@]%12(C)[C@]%11(C)CC[C@H]%10C9(C)C)nn8)nn7)C(C)(C)[C@@H]6CC[C@@]5(C)[C@]3(C)CC4)nn2)[C@H](OC(C)=O)[C@@H](OC(C)=O)[C@@H]1OC(C)=O`, for which the Activity entry in the series with MDCK is “Non-toxic”. Further, the inhibition at 100 µM in the series on Influenza A virus [4] was over 75%. Also, the IC50 in the series on Influenza A virus [1] was 24.9 µM. Besides, the selectivity ratio in series [2] is over 4.02. For the same compound, the half-maximal cytotoxic concentration (CC50) at 40 h in series [3] is over 100 µM.
Turning to `CC(=O)OC[C@H]1O[C@@H](n2cc(CNC(=O)[C@]34CCC(C)(C)C[C@H]3C3=CC[C@@H]5[C@@]6(C)CC[C@H](OC(=O)NCCCc7cn(CC(CO)(Cn8cc(CCCNC(=O)O[C@H]9CC[C@]%10(C)[C@H]%11CC=C%12[C@@H]%13CC(C)(C)CC[C@]%13(C(=O)NCc%13cn([C@@H]%14O[C@H](COC(C)=O)[C@@H](OC(C)=O)[C@H](OC(C)=O)[C@H]%14OC(C)=O)nn%13)CC[C@@]%12(C)[C@]%11(C)CC[C@H]%10C9(C)C)nn8)Cn8cc(CCCNC(=O)O[C@H]9CC[C@]%10(C)[C@H]%11CC=C%12[C@@H]%13CC(C)(C)CC[C@]%13(C(=O)NCc%13cn([C@@H]%14O[C@H](COC(C)=O)[C@@H](OC(C)=O)[C@H](OC(C)=O)[C@H]%14OC(C)=O)nn%13)CC[C@@]%12(C)[C@]%11(C)CC[C@H]%10C9(C)C)nn8)nn7)C(C)(C)[C@@H]6CC[C@@]5(C)[C@]3(C)CC4)nn2)[C@H](OC(C)=O)[C@@H](OC(C)=O)[C@@H]1OC(C)=O`, in the series with MDCK, the Activity entry is listed as “Non-toxic”. Besides, the inhibition at 100 µM in the series with Influenza A virus [4] was over 75%. Further, the IC50 in the series with Influenza A virus [1] was 4.61 µM. In addition, the selectivity ratio in series [2] was over 21.7. In series [3], the CC50 at 40 h is over 100 µM.
Consider `CC(=O)OC[C@H]1O[C@@H](n2cc(CNC(=O)[C@]34CCC(C)(C)C[C@H]3C3=CC[C@@H]5[C@@]6(C)CC[C@H](OC(=O)NCCc7cn(CC(CO)(Cn8cc(CCNC(=O)O[C@H]9CC[C@]%10(C)[C@H]%11CC=C%12[C@@H]%13CC(C)(C)CC[C@]%13(C(=O)NCc%13cn([C@@H]%14O[C@H](COC(C)=O)[C@@H](OC(C)=O)[C@H](OC(C)=O)[C@H]%14OC(C)=O)nn%13)CC[C@@]%12(C)[C@]%11(C)CC[C@H]%10C9(C)C)nn8)Cn8cc(CCNC(=O)O[C@H]9CC[C@]%10(C)[C@H]%11CC=C%12[C@@H]%13CC(C)(C)CC[C@]%13(C(=O)NCc%13cn([C@@H]%14O[C@H](COC(C)=O)[C@@H](OC(C)=O)[C@H](OC(C)=O)[C@H]%14OC(C)=O)nn%13)CC[C@@]%12(C)[C@]%11(C)CC[C@H]%10C9(C)C)nn8)nn7)C(C)(C)[C@@H]6CC[C@@]5(C)[C@]3(C)CC4)nn2)[C@H](OC(C)=O)[C@@H](OC(C)=O)[C@@H]1OC(C)=O`, for which, in the series with MDCK, the Activity result is on record as “Non-toxic”. For the same compound, the inhibition at 100 µM in the series on Influenza A virus [4] was over 75%. Further, the IC50 in the series on Influenza A virus [1] amounted to 10.3 µM. The selectivity ratio in series [2] was over 9.69. Also, the half-maximal cytotoxic concentration (CC50) at 40 h in series [3] is over 100 µM.
On to `CC1(C)CC[C@]2(C(=O)NCc3cn([C@@H]4O[C@H](CO)[C@@H](O)[C@H](O)[C@H]4O)nn3)CC[C@]3(C)C(=CC[C@@H]4[C@@]5(C)CC[C@H](OC(=O)NCCc6cn(CC(CO)(Cn7cc(CCNC(=O)O[C@H]8CC[C@]9(C)[C@H]%10CC=C%11[C@@H]%12CC(C)(C)CC[C@]%12(C(=O)NCc%12cn([C@@H]%13O[C@H](CO)[C@@H](O)[C@H](O)[C@H]%13O)nn%12)CC[C@@]%11(C)[C@]%10(C)CC[C@H]9C8(C)C)nn7)Cn7cc(CCNC(=O)O[C@H]8CC[C@]9(C)[C@H]%10CC=C%11[C@@H]%12CC(C)(C)CC[C@]%12(C(=O)NCc%12cn([C@@H]%13O[C@H](CO)[C@@H](O)[C@H](O)[C@H]%13O)nn%12)CC[C@@]%11(C)[C@]%10(C)CC[C@H]9C8(C)C)nn7)nn6)C(C)(C)[C@@H]5CC[C@]43C)[C@@H]2C1`, for which, in the series with MDCK, the Activity result is recorded as “Non-toxic”. Moreover, the concentration for half-maximal inhibition (IC50) in the series with Influenza A virus [1] amounted to 3.39 µM. Besides, the selectivity ratio in series [2] was over 29.5. Besides, the CC50 at 40 h in series [3] is over 100 µM.
